In US11884651B1, “7-(4-((4-benzylidene-5-oxo-2-phenyl-4,5-dihydro-1H-imidazol-1-yl)methyl)piperazin-1-yl)-1-cyclopropyl-6-fluoro-4-oxo-1,4-dihydroquinoline-3-carboxylic acid as an anti-inflammatory compound” (KING FAISAL UNIVERSITY, priority 2023, dated 2024):

Key:
[1] = target: Bovine Serum Albumin (BSA) (Bos taurus, UniProt P02769); experiment: Bovine Serum Albumin Assay (BSA), inhibition of heat-induced protein denaturation (in vitro anti-inflammatory activity); type: biochemical
Procedure: Bovine Serum Albumin Assay (BSA) In vitro-inflammatory activities of the tested samples were determined using a modified method of the BSA assay reported by Williams et al. BSA solution (0.4%, w/v) was prepared in Tris Buffered Saline. The pH was adjusted to 6.4 with glacial acetic acid. Different dilutions of 20, 40, 60, 80, and 100 pg/mL of the stock solutions of 7-(4((4-benzylidene-5-oxo-2-phenyl-4,5-dihydro-1H-imidazol-1-yl)methyl)piperazin-1-yl)-1-cyclopropyl-6-fluoro-4-oxo-1,4-dihydroquinoline-3-carboxylic acid (4) were added to test tubes containing 1 mL of 0.4%, w/v BSA buffer solution. Both negative (solvent) and positive (aspirin) controls were assayed in a similar manner. The solutions were then heated in a water bath at 72° C. for 10 minutes and cooled for 20 minutes under laboratory conditions. The turbidity of the solutions (level of protein precipitation) was measured at 660 nm in Spectrophotometer (V-770 UV-Visible/NIR Spectrophotometer). The percentage inhibition of precipitation (protein denaturation) was determined relative to the negative control using the following equation: [formula] [formula]

Bovine Serum Albumin (BSA), sequence (P02769 25-607): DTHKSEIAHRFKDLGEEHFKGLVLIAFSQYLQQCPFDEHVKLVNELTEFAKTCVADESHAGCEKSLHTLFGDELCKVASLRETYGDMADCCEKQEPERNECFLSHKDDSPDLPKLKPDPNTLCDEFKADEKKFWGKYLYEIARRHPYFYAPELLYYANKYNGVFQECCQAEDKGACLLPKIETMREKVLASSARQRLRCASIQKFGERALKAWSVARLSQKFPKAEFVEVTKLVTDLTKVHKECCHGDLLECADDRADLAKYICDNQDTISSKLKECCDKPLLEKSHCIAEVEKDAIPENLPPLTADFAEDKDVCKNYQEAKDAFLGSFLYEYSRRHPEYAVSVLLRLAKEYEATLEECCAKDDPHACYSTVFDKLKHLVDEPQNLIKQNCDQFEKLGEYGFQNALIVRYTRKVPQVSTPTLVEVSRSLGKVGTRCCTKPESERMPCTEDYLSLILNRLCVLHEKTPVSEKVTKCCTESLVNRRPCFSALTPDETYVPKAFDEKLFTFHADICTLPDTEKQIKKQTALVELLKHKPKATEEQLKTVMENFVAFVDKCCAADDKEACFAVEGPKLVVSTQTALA

SMILES: O=C(O)c1cn(C2CC2)c2cc(N3CCN(CN4C(=O)/C(=C\c5ccccc5)N=C4c4ccccc4)CC3)c(F)cc2c1=O [Compound 4, 7-(4-((4-benzylidene-5-oxo-2-phenyl-4,5-dihydro-1H-imidazol-1-yl)methyl)piperazin-1-yl)-1-cyclopropyl-6-fluoro-4-oxo-1,4-dihydroquinoline-3-carboxylic acid]
- melting point: 232 to 234 °C
- in vitro anti-inflammatory activity (result in words) ([1]; BSA assay): considerable anti-inflammatory effect
- percentage inhibition of precipitation (protein denaturation) ([1]; bovine, 10 min, 100 pg/mL, pH 6.4): 84.78%

SMILES: CC(=O)Oc1ccccc1C(=O)O [aspirin, reference compound]
- percentage inhibition of precipitation (protein denaturation) ([1]; 100 pg/ml (concentration printed for aspirin), 0.4% w/v BSA, pH 6.4, 72° C. for 10 minutes, turbidity at 660 nm, relative to negative control): 90.75%
